According to patent US8653057B1, “Prophylactic perioperative testosterone supplementation for protection of and recovery of function” (The Regents of the University of California, priority 2010, dated 2014):

What was measured:
[1] = cited from earlier work
[2] = testosterone supplementation of low-testosterone patients around radical prostatectomy (anecdotal results); assay type: in vivo, men
Description: Therefore men with either low or low normal testosterone levels can be treated with testosterone (or other androgens such as synthetic steroids structurally related to testosterone) to prevent, mitigate or treat erectile dysfunction associated with RARP/RP. A large number of testosterone replacement drugs such as Androgel can easily be given to appropriate patients prior to or even following surgery. The amount of testosterone administered is sufficient to raise the free testosterone level into the high free testosterone range as defined above (generally greater than about 9 ng/dl). Where other androgens are used, the equivalent effectiveness of each different molecule in terms of testosterone is generally known. Sufficient androgen is given so that the effectiveness of the circulating level of androgen plus testosterone falls within the high free testosterone range. As will be clear to those of ordinary skill in the art, the testosterone or other androgen is administered at the usual amount and frequency. Circulating testosterone levels are measured at appropriate intervals (i.e., weekly or monthly) and the dosage adjusted if necessary.
We believe that preoperative supplementation will produce even more dramatic improvements. […]

## C[C@]12CC[C@H]3[C@@H](CCC4=CC(=O)CC[C@@]43C)[C@@H]1CC[C@@H]2O [testosterone]
[1]
  PSA values after testosterone replacement therapy: have not been shown to increase significantly
[1]; testosterone replacement after radical prostatectomy, small studies (7, 10 and 57 men), 13 and 19 months
  prostate specific antigen (PSA): without increasing prostate specific antigen (PSA)
[2]; supplementing low testosterone levels, anecdotal results
  recovery (of potency/sexual function) after prostate surgery: more rapid and more complete recovery
[2]; testosterone supplementation, limited data
  recurrence of the cancer: does not lead to recurrence of the cancer
